Assay results published in US20070009986A1, “Compositions for modulating immune cell activity and methods for detection thereof” (priority 2003, published 2007).

System: CD8+CD45RO+ T-cell migration towards and away from HIV-1gp120
Assay: Inhibitor profile of T-cell movement towards and away from recombinant X4 gp120 in transmigration assays
Assay type: cell-based, human
Conditions: for inhibition of migration away from gp120: T-cells including HIV-specific CTL
Method: Transmigration assays: Transmigration assays were performed in a transwell system with a polycarbonate membrane of 6.5-mm diameter with 5 μm pore size (Corning, Corning, N.Y.) as described (Kim et al., 1998, Blood 91:4434-4443; Poznansky et al., 2000, Nat Med 6:543-548). Purified T-cell subpopulations (5×10^4 cells) were added to the upper chamber of each well in a total volume of 150 μl Iscove's modified media. SDF-1α (PeproTech, Rocky Hill, N.J.) or recombinant HIV-1 gp120 (Immunodiagnostics, Woburn, Mass., AIDS Reagent Repository, NIH or RW) was used at concentrations ranging from 2 ng/ml to […] in the lower, upper, or both lower and upper chambers of the transwell to generate a standard “checkerboard” analysis matrix of positive, negative and absent gradients. Recombinant variable loop deletion mutants of HIV-1IIIB gp120 including V1, V1.V2, and V1.V2.V3, were also used in these assays. Transwells were incubated for 3 hours at 37° C., after which cells were collected from the lower chamber and counted.
Specific components of the Gi-protein coupled receptor signaling pathway for SDF-1 can be blocked by a number of different chemical inhibitor (Poznansky et al., 2000, Nat Med 6:543-548; Poznansky et al., 2002, Clin. Invest. 109:1101-1110; Sotsios et al., 1999, J. Immunol. 163:5954-5963; Vlahakis et al. 2001, J. Clin. Invest. 107:207-215). The inhibitor profile for movement of resting T-cell subpopulations towards and away from recombinant X4 gp120 in transmigration assays had been established.

Molecule	inhibition of migration away from gp120	inhibition of T-cell migration towards and away from HIV-1gp120 (CD8+CD45RO+ T-cells incubated with inhibitor prior to transmigration assay, FIG. 2)
Nc1ncnc2c1nc(Br)n2[C@@H]1O[C@@H]2COP(=O)(O)O[C@H]2[C@H]1O [8-Br-cAMP]	inhibited	–
pertussis toxin	inhibited	significantly inhibited
